Assay results from patent US11208412B2 (DAEGU-GYEONGBUK MEDICAL INNOVATION FOUNDATION, priority 2017, dated 2021).

Columns and labels:
Assay in all cases: Kinase selectivity, DiscoverX scanMAX Kinase assay panel (% control)
Assay type in all cases: binding
[1] = target: T1, kinases of the scanMAX Kinase assay panel (Homo sapiens, UniProt O60331); conditions: PIP5K1C; 1 uM
T1 construct: purchased DiscoverX Co. (contract measurement) scanMAX Kinase assay panel
How it was run: (§1)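 Percent of control computed as (compound − positive control)/(negative control − positive control) × 100, DMSO defining 100% and positive control 0%. Each panel kinase exposed to 1 uM compound; values under 35% taken to mean the compound acts on that kinase.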

[2] = target: T2, kinases of the scanMAX Kinase assay panel (Homo sapiens, UniProt P17612); conditions: PKAC-alpha; 1 uM
T2 construct: purchased DiscoverX Co. (contract measurement) scanMAX Kinase assay panel
How it was run: as §1

[3] = target: T3, kinases of the scanMAX Kinase assay panel (Homo sapiens, UniProt P42679); conditions: CTK; 1 uM
T3 construct: purchased DiscoverX Co. (contract measurement) scanMAX Kinase assay panel
T3 sequence (P42679 1-507): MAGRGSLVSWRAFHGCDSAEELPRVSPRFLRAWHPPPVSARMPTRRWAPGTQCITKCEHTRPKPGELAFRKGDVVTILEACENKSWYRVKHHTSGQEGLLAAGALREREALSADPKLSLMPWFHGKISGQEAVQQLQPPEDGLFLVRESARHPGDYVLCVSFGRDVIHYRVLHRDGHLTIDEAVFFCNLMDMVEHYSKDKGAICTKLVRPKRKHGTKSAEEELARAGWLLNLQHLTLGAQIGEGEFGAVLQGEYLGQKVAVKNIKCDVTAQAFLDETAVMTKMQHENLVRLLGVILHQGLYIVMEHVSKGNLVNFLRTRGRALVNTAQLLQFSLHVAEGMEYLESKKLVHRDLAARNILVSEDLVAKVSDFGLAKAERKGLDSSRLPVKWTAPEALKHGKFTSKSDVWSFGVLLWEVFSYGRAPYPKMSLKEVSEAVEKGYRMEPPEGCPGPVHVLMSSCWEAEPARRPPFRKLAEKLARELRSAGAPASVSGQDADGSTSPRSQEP
How it was run: as §1

[4] = target: T4, kinases of the scanMAX Kinase assay panel (Homo sapiens, UniProt P51956); conditions: NEK3; 1 uM
T4 construct: purchased DiscoverX Co. (contract measurement) scanMAX Kinase assay panel
T4 sequence (P51956 1-506): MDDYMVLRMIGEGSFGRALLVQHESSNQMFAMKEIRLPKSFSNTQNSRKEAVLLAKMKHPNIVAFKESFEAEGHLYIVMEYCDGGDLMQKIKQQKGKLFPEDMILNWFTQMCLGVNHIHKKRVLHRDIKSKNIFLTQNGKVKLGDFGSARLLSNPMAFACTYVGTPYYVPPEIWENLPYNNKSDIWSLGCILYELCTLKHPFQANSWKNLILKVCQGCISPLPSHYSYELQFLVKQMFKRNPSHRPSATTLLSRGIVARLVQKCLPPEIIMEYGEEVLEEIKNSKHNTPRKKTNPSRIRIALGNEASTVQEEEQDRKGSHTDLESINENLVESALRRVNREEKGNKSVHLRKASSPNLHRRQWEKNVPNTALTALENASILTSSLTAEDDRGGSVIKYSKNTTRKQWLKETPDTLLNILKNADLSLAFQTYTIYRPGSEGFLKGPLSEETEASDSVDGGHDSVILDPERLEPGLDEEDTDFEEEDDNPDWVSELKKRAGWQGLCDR
How it was run: as §1

[5] = target: T5, kinases of the scanMAX Kinase assay panel (Homo sapiens, UniProt Q6XUX3); conditions: kinase RIPK5; 1 uM in DMSO
T5 construct: purchased DiscoverX Co. (contract measurement) scanMAX Kinase assay panel
T5 sequence (Q6XUX3 1-929): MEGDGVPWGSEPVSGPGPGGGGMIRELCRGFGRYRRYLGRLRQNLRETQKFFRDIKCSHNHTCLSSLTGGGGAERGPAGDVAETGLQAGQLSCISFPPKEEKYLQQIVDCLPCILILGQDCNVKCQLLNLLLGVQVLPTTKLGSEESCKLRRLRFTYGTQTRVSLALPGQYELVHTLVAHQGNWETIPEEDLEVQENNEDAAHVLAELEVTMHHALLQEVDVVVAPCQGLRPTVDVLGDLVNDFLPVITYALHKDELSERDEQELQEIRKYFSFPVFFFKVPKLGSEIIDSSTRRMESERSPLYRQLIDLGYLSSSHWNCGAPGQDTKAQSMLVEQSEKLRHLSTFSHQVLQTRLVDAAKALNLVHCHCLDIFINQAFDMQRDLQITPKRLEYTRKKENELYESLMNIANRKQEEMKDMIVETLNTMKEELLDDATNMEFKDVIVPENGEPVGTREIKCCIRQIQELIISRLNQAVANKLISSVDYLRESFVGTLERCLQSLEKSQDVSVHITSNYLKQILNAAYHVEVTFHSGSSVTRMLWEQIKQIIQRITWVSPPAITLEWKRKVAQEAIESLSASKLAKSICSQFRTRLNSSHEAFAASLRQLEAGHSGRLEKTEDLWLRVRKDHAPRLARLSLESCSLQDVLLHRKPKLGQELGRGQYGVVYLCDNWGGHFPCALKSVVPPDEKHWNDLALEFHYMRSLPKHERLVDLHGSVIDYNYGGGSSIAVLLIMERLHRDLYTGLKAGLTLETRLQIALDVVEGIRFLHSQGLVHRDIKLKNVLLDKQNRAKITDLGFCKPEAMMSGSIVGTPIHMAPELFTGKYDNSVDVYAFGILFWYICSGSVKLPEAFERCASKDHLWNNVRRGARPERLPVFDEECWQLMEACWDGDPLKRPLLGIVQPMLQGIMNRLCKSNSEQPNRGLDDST
How it was run: as §1

[6] = target: T6, kinases of the scanMAX Kinase assay panel (Homo sapiens, UniProt Q9H422); conditions: HIPK3; 1 uM
T6 construct: purchased DiscoverX Co. (contract measurement) scanMAX Kinase assay panel
T6 sequence (Q9H422 whole entry): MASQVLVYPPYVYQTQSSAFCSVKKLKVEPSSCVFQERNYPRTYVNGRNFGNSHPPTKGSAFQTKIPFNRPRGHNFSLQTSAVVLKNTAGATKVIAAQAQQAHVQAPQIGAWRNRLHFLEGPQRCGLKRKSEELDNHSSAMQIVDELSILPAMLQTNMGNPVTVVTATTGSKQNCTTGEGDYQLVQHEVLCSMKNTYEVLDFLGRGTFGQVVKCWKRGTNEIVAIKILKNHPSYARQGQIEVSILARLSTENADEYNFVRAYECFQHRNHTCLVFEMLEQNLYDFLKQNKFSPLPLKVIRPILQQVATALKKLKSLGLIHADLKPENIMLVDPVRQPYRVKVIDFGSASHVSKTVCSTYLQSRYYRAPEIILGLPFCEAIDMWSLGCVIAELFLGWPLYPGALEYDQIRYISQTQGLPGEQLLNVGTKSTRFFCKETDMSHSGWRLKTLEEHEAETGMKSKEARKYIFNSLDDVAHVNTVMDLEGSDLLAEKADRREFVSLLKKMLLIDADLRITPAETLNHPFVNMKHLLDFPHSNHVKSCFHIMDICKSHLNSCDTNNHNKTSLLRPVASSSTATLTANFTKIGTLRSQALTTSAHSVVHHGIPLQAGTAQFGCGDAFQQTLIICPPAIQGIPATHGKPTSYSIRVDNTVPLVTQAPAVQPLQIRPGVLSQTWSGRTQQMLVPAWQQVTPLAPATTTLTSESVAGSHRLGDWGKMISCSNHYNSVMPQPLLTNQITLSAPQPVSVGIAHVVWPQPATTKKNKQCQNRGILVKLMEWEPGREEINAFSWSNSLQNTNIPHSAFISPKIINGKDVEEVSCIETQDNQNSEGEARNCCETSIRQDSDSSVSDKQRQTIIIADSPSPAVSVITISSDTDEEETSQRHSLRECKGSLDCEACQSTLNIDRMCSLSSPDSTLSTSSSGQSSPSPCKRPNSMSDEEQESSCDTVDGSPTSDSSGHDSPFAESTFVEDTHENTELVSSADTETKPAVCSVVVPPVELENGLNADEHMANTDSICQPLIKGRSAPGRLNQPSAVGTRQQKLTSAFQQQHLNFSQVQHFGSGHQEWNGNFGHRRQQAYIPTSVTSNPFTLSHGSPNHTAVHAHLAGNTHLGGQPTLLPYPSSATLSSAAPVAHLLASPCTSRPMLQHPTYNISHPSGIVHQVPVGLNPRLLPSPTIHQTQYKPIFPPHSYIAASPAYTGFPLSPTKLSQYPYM
How it was run: as §1

T1 sequence (O60331 whole entry): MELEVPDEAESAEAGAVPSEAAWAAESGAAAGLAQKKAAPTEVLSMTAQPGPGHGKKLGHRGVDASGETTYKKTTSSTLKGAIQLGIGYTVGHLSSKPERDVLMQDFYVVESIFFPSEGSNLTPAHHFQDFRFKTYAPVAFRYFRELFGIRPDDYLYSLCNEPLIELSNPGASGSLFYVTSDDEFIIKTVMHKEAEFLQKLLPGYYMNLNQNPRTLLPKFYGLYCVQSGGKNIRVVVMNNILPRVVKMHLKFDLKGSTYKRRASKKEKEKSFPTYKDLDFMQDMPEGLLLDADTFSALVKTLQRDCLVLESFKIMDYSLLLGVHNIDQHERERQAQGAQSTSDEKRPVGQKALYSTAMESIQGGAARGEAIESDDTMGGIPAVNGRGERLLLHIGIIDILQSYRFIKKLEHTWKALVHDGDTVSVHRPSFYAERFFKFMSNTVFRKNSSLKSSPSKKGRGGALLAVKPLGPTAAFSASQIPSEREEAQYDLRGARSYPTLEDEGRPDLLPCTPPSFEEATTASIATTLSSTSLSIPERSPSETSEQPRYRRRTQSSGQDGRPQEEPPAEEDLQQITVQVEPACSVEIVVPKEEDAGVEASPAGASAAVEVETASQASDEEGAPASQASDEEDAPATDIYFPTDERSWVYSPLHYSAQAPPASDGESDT

Row | SMILES | remaining binding at 1 µM [1] [%] | remaining binding at 1 µM [2] [%] | remaining binding at 1 µM [3] [%] | remaining binding at 1 µM [4] [%] | remaining binding at 1 µM [5] [%] | remaining binding at 1 µM [6] [%]
1 | CNc1nc(Nc2ccc(C(=O)N3CCOCC3)cc2OC)nc2[nH]cc(C#N)c12 [Example 1, 2-((2-methoxy-4-(morpholine-4-carbonyl)phenyl)amino)-4-(methylamino)-7H-pyrrolo[2,3-d]pyrimidine-5-carbonitrile] | 1 | 100 | 98 | 70 | 10 | 64
2 | CC1(Nc2nc(Nc3cnn([C@H]4CCN(C5COC5)C[C@@H]4F)c3Cl)nc3[nH]cc(C#N)c23)CC1 [Example 52, 2-((5-chloro-1-((3S,4S)-3-fluoro-1-(oxetane-3-yl)piperidine-4-yl)-1H-pyrazole-4-yl)amino)((1-methylcyclopropyl)amino)-7H-pyrrolo[2,3-d]pyrimidine-5-carbonitrile] | 0 | 100 | 47 | 96 | 3.7 | 6.2
3 | CCNc1nc(Nc2ccc(C(=O)N3CCC(N4CCOCC4)CC3)cc2OC)nc2[nH]cc(C(F)(F)F)c12 [Example 104, (4-((4-(ethylamino)-5-(trifluoromethyl)-7H-pyrrolo[2,3-d]pyrimidine-2-yl)amino)-3-methoxyphenyl)(4-morpholinopiperidine-1-yl)methanone] | 100 | 100 | 100 | 82 | 18 | 16
